One block for each compound: values may come before it.
What was measured:
[1] = Cyclic voltammetry in Pt/Li/Li three-electrode cell; assay type: physicochemical; settings: for performance compared with quinoxaline: 0.005 M in Electrolyte B; for redox properties from cyclic voltammogram: lithium electrolyte and concentration differ per compound; for Potential: 10 mM in 1.2 M LiPF6 in EC/EMC (3:7 by weight), Pt/Li/Li
Method: The upper and lower redox potentials shown in FIG. 5 were determined by a combination of average peak potential and graphical analysis of the cyclic voltammograms over a range of scan rates (5, 10, 20, 50, 100, and 200 mV/s).
Cyclic voltammetry (CV) were performed in a custom-made airtight three-electrode electrochemical cell with a 2-mm diameter platinum disk working electrode and lithium metal counter and reference electrodes. Prior to use, the platinum disk electrode was dipped in nitric acid solution (about 50 vol % HNO3, Ricca Chemical Company) and then polished on a MICROCLOTH® pad with 0.3 μm and 0.05 μm alumina (Buehler Ltd., Lake Bluff, Ill.). After polishing, the electrode was thoroughly rinsed with distilled water and dried with house nitrogen. The electrochemical cell was then assembled in an Argon-filled glove box and transferred out to perform measurements. […] All evaluations were performed in triplicate at room temperature.
The redox potential of DBBB was calculated by averaging the oxidation and reduction peak potentials in the two different electrolytes at various scan rates (5, 10, 20, 50, 100, and 200 mV/s). […] The shift in the peak potential with the scan rate may be caused by the limited charge-transfer kinetics of the active species (DBBB) and the uncompensated resistance, which is commonly called the “iR drop”. Because the polarization from the kinetic effect and iR drop is triggered by the current flowing through the electrochemical cell, the average peak potential [(Epa+Epc)/2] gives a good estimation of the redox potential of the reversible electroactive species. […] Evaluations were performed in triplicate in a Pt/Li/Li cell at room temperature.

[2] = Cyclic voltammetry in Pt/Na/Na cell with sodium electrolyte; assay type: physicochemical; settings: NaPF6 in propylene carbonate
Method: The redox materials described herein also can be utilized with sodium-based electrolyte salts. For example, FIG. 22(a) provides a cyclic voltammogram obtained with about 17 mM DBBB in 0.247 M Na PF6 in propylene carbonate, in a Pt/Na/Na cell at scan rates of 5, 20, 50, and 100 mV/s. FIG. 22(b) provides a cyclic voltammogram obtained with about 13 mM 2,3,6-trimethylquinoxaline in 0.217 M NaPF6 in propylene carbonate at a 20 mV/s scan rate.

[3] = Diffusion coefficient from Randle-Sevcik measurements; assay type: physicochemical
Method: 2,5-Di-tert-butyl-1,4-bis(2-methoxyethoxy)benzene (“DBBB”) is a redox material developed at Argonne National Laboratory for overcharge protection in Li-ion batteries. […] The diffusion coefficient of DBBB was determined to be about 1.30×10^−6 cm^2/s in the battery electrolyte based on Randle-Sevcik measurements. However, Electrolyte A is non-ideal for flow battery applications due to high volatility, extreme moisture sensitivity, and high materials cost. Thus, an electrolyte consisting of 0.2 M LiBF4 in propylene carbonate (“Electrolyte B”) was also investigated as a more robust and lower cost alternative. FIG. 2b show iR-corrected cyclic voltammograms of 0.005 M DBBB in Electrolyte A and in Electrolyte B at a scan rate of 20 mV/s. […] Thus, 2,5-di-tert-butyl-1,4-dialkoxybenzene compounds, such as DBBB, are active in different electrolyte systems, and the performance of these materials can be tailored by the choice of the electrolyte composition.

[4] = Li-ion cell, 100% overcharge; cited from earlier work
[5] = Intrinsic capacity and energy density (Table 1); assay type: physicochemical
Excerpt: Table 1 provides a summary of the useful redox properties of these compounds.

[6] = Solubility in solvent or electrolyte; assay type: physicochemical

Compound: Cc1ccc2nccnc2c1 [6-methylquinoxaline]
performance compared with quinoxaline ([1]; Pt/Li/Li cell): slightly better performance than quinoxaline

Compound: COCCOc1cc(C(C)(C)C)c(OCCOC)cc1C(C)(C)C [DBBB, 2,5-Di-tert-butyl-1,4-bis(2-methoxyethoxy)benzene]
redox potential, average of anodic and cathodic potentials [(Epa+Epc)/2] ([1]; 0.005 M in Electrolyte A (1.2 M LiPF6 in EC/EMC 3/7 by volume), room temperature): about 3.927 V vs. Li/Li^+
redox potential ([1]; 0.005 M in Electrolyte B (0.2 M LiBF4 in propylene carbonate), room temperature): 4.022 V vs. Li/Li^+
diffusion coefficient ([3]; Electrolyte A): about 1.30×10^−6 cm^2/s
diffusion coefficient ([3]; Electrolyte B): about 1.53×10^−6 cm^2/s
redox properties from cyclic voltammogram [2]: suitable reversible redox properties
potential at which active in overcharge protection [4]: about 4.0 V vs. Li/Li^+

Compound: Fc1c(F)c(F)c2c(c1F)OB(c1cc(C(F)(F)F)ccc1C(F)(F)F)O2 [Compound 7]
redox properties from cyclic voltammogram ([1]; Pt/Li/Li cell): redox properties suitable for use as redox reactants for the positive electrolyte

Compound: Fc1ccc(B2Oc3c(F)c(F)c(F)c(F)c3O2)c(F)c1 [Compound 6]
redox properties from cyclic voltammogram ([1]; Pt/Li/Li cell): redox properties suitable for use as redox reactants for the positive electrolyte

Compound: COc1c(F)c(F)c(OC)c(F)c1F [TFDMB, 1,2,4,5-tetrafluoro-3,6-dimethoxybenzene]
Potential [1]: 4.70 V vs. Li/Li
Energy Density [5]: 599.7 Wh/Kg
Intrinsic Capacity [5]: 127.6 mAh/g

Compound: O=C(c1ccccc1)c1ccccc1 [benzophenone]
redox properties from cyclic voltammogram ([1]; Pt/Li/Li cell): suitable redox properties

Compound: Fc1c(F)c(F)c(B2Oc3c(F)c(F)c(F)c(F)c3O2)c(F)c1F [Compound 8]
redox properties from cyclic voltammogram ([1]; Pt/Li/Li cell): redox properties suitable for use as redox reactants for the positive electrolyte

Compound: Fc1c(F)c(F)c2c(c1F)OCCO2 [Compound 5]
redox properties from cyclic voltammogram ([1]; Pt/Li/Li cell): redox properties suitable for use as redox reactants for the positive electrolyte

Compound: COCCOc1c(F)c(F)c(OCCOC)c(F)c1F [TFBMEB, 1,2,4,5-tetrafluoro-3,6-bis(2-methoxyethoxy)benzene]
Potential [1]: 4.70 V vs. Li/Li
Energy Density [5]: 422.5 Wh/Kg
Intrinsic Capacity [5]: 89.9 mAh/g

Compound: [Cl-].[Cl-].c1ccc(C[n+]2ccc(-c3cc[n+](Cc4ccccc4)cc3)cc2)cc1 [bis-benzyl-4,4′-bipyridinium dichloride]
redox properties from cyclic voltammogram ([1]; Pt/Li/Li cell): suitable redox properties

The next lines start with the values.

redox activity ([1]; Electrolyte B): no redox activity was observed
Compound: BrCc1nc2ccccc2nc1CBr [2,3-bis(bromomethyl)quinoxaline]

redox properties from cyclic voltammogram [2]: suitable reversible redox properties
Compound: Cc1ccc2nc(C)c(C)nc2c1 [2,3,6-trimethylquinoxaline]

lower redox potential ([1]; Electrolyte B, Pt/Li/Li cell, average peak potential method): about 2.6 V
Compound: Cc1cc2nc(-c3ccccn3)c(-c3ccccn3)nc2cc1C [6,7-dimethyl-2,3-di(2-pyridyl)quinoxaline]

redox activity ([1]; Electrolyte B): some redox activity
separation of oxidation and reduction events ([1]; Electrolyte B): about 1 V
Compound: CC(=O)c1cnc2ccccc2n1 [2-Acetylquinoxaline]

redox properties from cyclic voltammogram ([1]; Pt/Li/Li cell): suitable redox properties
Compound: CN1c2ccccc2N(C)c2ccccc21 [5,10-dihydro-5,10-dimethylphenazine]

solubility ([6]; organic solvent or mixture, in propylene carbonate): ≥ 2000 mM
Compound: c1ccc2nccnc2c1 [Quinoxaline]

Potential [1]: 4.63 V vs. Li/Li
Energy Density [5]: 520.9 Wh/Kg
Intrinsic Capacity [5]: 112.5 mAh/g
Compound: CCOc1c(F)c(F)c(OCC)c(F)c1F [TFDEB, 1,2,4,5-tetrafluoro-3,6-diethoxybenzene]

redox activity ([1]; Electrolyte B): no redox activity was observed
Compound: FC(F)(F)c1cnc2ccccc2n1 [2-trifluoromethylquinoxaline]

performance compared with quinoxaline ([1]; Pt/Li/Li cell): lower activity
Compound: Cc1cccc2nccnc12 [5-methylquinoxaline]

solubility in electrolyte solution ([6]; Electrolyte B): not soluble
Compound: Oc1nc2ccccc2nc1O [2,3-Dihydroxyquinoxaline]

Reference: patent US10424806B2, “Organic non-aqueous cation-based redox flow batteries” (UCHICAGO ARGONNE, LLC, priority 2012, dated 2019)
